Experimental data reported in the supplement of paper PMC12698765.
± gives the standard deviation of the averaged measurements.

How the values were obtained:
[1] = tested on: 409B2 hiPSC (iCRISPR Cas9, FRMD7 editing); assay: cell survival relative to solvent control (fold (ratio to mock)); higher = more surviving cells
Method: (§1)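 Subset screen of 55 drugs tested at 5 concentrations around the effective screening dose, in 409B2 iCRISPR Cas9 hiPSCs editing FRMD7 with a ssDNA donor. Drugs were applied for 24 h. Viability was read by resazurin and editing outcomes by amplicon sequencing (HDR, NHEJ <2 bp microhomology, MMEJ ≥2 bp microhomology). Values are relative to solvent mock controls; two biological replicates.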

[2] = tested on: 409B2 hiPSC (iCRISPR Cas9, FRMD7 editing); assay: NHEJ-attributed indel frequency relative to solvent control (fold (ratio to mock)); higher = more NHEJ outcomes
Method: as §1

[3] = tested on: 409B2 hiPSC (iCRISPR Cas9, FRMD7 editing); assay: MMEJ-attributed deletion frequency relative to solvent control (fold (ratio to mock)); higher = more MMEJ outcomes
Method: as §1

[4] = tested on: 409B2 hiPSC (iCRISPR Cas9, FRMD7 editing); assay: HDR (precise edit) frequency relative to solvent control (fold (ratio to mock)); higher = more homology-directed repair outcomes
Method: as §1

`CC(=O)c1c(C)c2cnc(Nc3ccc(N4CCNCC4)cn3)nc2n(C2CCCC2)c1=O` (in DMSO) gave a cell survival ([1]; 2000 nM) of 0.475, a cell survival ([1]; 5000 nM) of 0.185 and a cell survival ([1]; 10000 nM) of 0.0327. The cell survival ([1]; 20000 nM) was -0.0205, the cell survival ([1]; 50000 nM) was 0.00851 and the NHEJ-attributed indel frequency ([2]; 2000 nM) was 0.989 ± 0.048. For the same compound, the NHEJ-attributed indel frequency ([2]; 5000 nM) was 0.993 ± 0.073, the NHEJ-attributed indel frequency ([2]; 10000 nM) was 0.46 ± 0.24 and the NHEJ-attributed indel frequency ([2]; 20000 nM) was 0.127 ± 0.018. It also gave an NHEJ-attributed indel frequency ([2]; 50000 nM) of 0.12 ± 0.036, an MMEJ-attributed deletion frequency ([3]; 2000 nM) of 0.907 ± 0.03 and an MMEJ-attributed deletion frequency ([3]; 5000 nM) of 1.19 ± 0.17. It also gave an MMEJ-attributed deletion frequency ([3]; 10000 nM) of 0.73 ± 0.046, an MMEJ-attributed deletion frequency ([3]; 20000 nM) of 0.458 ± 0.082 and an MMEJ-attributed deletion frequency ([3]; 50000 nM) of 0.244 ± 0.076. It also gave an HDR ([4]; 2000 nM) of 1.01 ± 0.011, an HDR ([4]; 5000 nM) of 0.587 ± 0.11 and an HDR ([4]; 10000 nM) of 0.152 ± 0.029. It also gave an HDR ([4]; 20000 nM) of 0.0501 ± 0.0028 and an HDR ([4]; 50000 nM) of 0.0996 ± 0.032.

For `Cc1ccc(C(=O)N(CCCN)[C@@H](c2nc3cc(Cl)ccc3c(=O)n2Cc2ccccc2)C(C)C)cc1` (in DMSO), the cell survival ([1]; 0.2 nM) was 1.07, the cell survival ([1]; 0.5 nM) was 1.34 and the cell survival ([1]; 1 nM) was 1.15. It also gave a cell survival ([1]; 2 nM) of 1.2, a cell survival ([1]; 5 nM) of 0.682 and an NHEJ-attributed indel frequency ([2]; 0.2 nM) of 0.957 ± 0.046. For the same compound, the NHEJ-attributed indel frequency ([2]; 0.5 nM) was 0.989 ± 0.019, the NHEJ-attributed indel frequency ([2]; 1 nM) was 0.9925 ± 0.0038 and the NHEJ-attributed indel frequency ([2]; 2 nM) was 1.012 ± 0.0086. The NHEJ-attributed indel frequency ([2]; 5 nM) was 1.07 ± 0.041, the MMEJ-attributed deletion frequency ([3]; 0.2 nM) was 1.01 ± 0.086 and the MMEJ-attributed deletion frequency ([3]; 0.5 nM) was 0.901 ± 0.032. It also gave an MMEJ-attributed deletion frequency ([3]; 1 nM) of 1.01 ± 0.076, an MMEJ-attributed deletion frequency ([3]; 2 nM) of 0.864 ± 0.08 and an MMEJ-attributed deletion frequency ([3]; 5 nM) of 0.961 ± 0.13. The HDR ([4]; 0.2 nM) was 1.1 ± 0.075, the HDR ([4]; 0.5 nM) was 1.0454 ± 2.1e-05 and the HDR ([4]; 1 nM) was 1.08 ± 0.032. For the same compound, the HDR ([4]; 2 nM) was 1.03 ± 0.032 and the HDR ([4]; 5 nM) was 1.18 ± 0.095.

`O=C(c1cc(Cc2n[nH]c(=O)c3ccccc23)ccc1F)N1CCN(C(=O)C2CC2)CC1` (in DMSO) gave a cell survival ([1]; 200 nM) of 0.395, a cell survival ([1]; 500 nM) of 0.388 and a cell survival ([1]; 1000 nM) of 0.217. It also gave a cell survival ([1]; 2000 nM) of 0.106, a cell survival ([1]; 5000 nM) of 0.0246 and an NHEJ-attributed indel frequency ([2]; 200 nM) of 0.814 ± 0.042. It also gave an NHEJ-attributed indel frequency ([2]; 500 nM) of 0.78 ± 0.042, an NHEJ-attributed indel frequency ([2]; 1000 nM) of 0.698 ± 0.076 and an NHEJ-attributed indel frequency ([2]; 2000 nM) of 0.6123 ± 0.0021. It also gave an NHEJ-attributed indel frequency ([2]; 5000 nM) of 0.513 ± 0.04, an MMEJ-attributed deletion frequency ([3]; 200 nM) of 0.9 ± 0.073 and an MMEJ-attributed deletion frequency ([3]; 500 nM) of 0.64 ± 0.079. For the same compound, the MMEJ-attributed deletion frequency ([3]; 1000 nM) was 0.705 ± 0.18, the MMEJ-attributed deletion frequency ([3]; 2000 nM) was 0.614 ± 0.013 and the MMEJ-attributed deletion frequency ([3]; 5000 nM) was 0.746 ± 0.11. For the same compound, the HDR ([4]; 200 nM) was 1.28 ± 0.18, the HDR ([4]; 500 nM) was 1.18 ± 0.16 and the HDR ([4]; 1000 nM) was 1.341 ± 0.0076. It also gave an HDR ([4]; 2000 nM) of 1.03 ± 0.017 and an HDR ([4]; 5000 nM) of 0.432 ± 0.03.

`CCN1CCN(Cc2ccc(Nc3ncc(F)c(-c4cc(F)c5nc(C)n(C(C)C)c5c4)n3)nc2)CC1` (in EtOH) was tested, and the cell survival ([1]; 2000 nM) was 0.514, the cell survival ([1]; 5000 nM) was -0.00651 and the cell survival ([1]; 10000 nM) was -0.00445. The cell survival ([1]; 20000 nM) was -0.00662, the cell survival ([1]; 50000 nM) was -0.00233 and the NHEJ-attributed indel frequency ([2]; 2000 nM) was 0.504 ± 0.61. The NHEJ-attributed indel frequency ([2]; 5000 nM) was 0.11 ± 0.075, the NHEJ-attributed indel frequency ([2]; 10000 nM) was 0.157 ± 0.018 and the NHEJ-attributed indel frequency ([2]; 20000 nM) was 0.0938 ± 0.058. The NHEJ-attributed indel frequency ([2]; 50000 nM) was 0.0987 ± 0.029, the MMEJ-attributed deletion frequency ([3]; 2000 nM) was 0.565 ± 0.58 and the MMEJ-attributed deletion frequency ([3]; 5000 nM) was 0.159 ± 0.15. It also gave an MMEJ-attributed deletion frequency ([3]; 10000 nM) of 0.229 ± 0.044, an MMEJ-attributed deletion frequency ([3]; 20000 nM) of 0.109 ± 0.062 and an MMEJ-attributed deletion frequency ([3]; 50000 nM) of 0.0743 ± 0.0014. It also gave an HDR ([4]; 2000 nM) of 0.589 ± 0.76, an HDR ([4]; 5000 nM) of 0.0594 ± 0.017 and an HDR ([4]; 10000 nM) of 0.0558 ± 0.0014. The HDR ([4]; 20000 nM) was 0.0719 ± 0.015 and the HDR ([4]; 50000 nM) was 0.0788 ± 0.0049.

In the case of `CSCCC(N)C(=O)O` (racemic) [DL-Methionine] (in H2O), the cell survival ([1]; 20 nM) is reported as 0.974, the cell survival ([1]; 50 nM) is reported as 0.972 and the cell survival ([1]; 100 nM) is reported as 0.891. For the same compound, the cell survival ([1]; 200 nM) was 0.957, the cell survival ([1]; 500 nM) was 0.861 and the NHEJ-attributed indel frequency ([2]; 20 nM) was 1.01 ± 0.025. The NHEJ-attributed indel frequency ([2]; 50 nM) was 1.038 ± 0.0021, the NHEJ-attributed indel frequency ([2]; 100 nM) was 1.04 ± 0.0044 and the NHEJ-attributed indel frequency ([2]; 200 nM) was 1.03 ± 0.011. For the same compound, the NHEJ-attributed indel frequency ([2]; 500 nM) was 1.02 ± 0.016, the MMEJ-attributed deletion frequency ([3]; 20 nM) was 0.912 ± 0.069 and the MMEJ-attributed deletion frequency ([3]; 50 nM) was 0.924 ± 0.017. The MMEJ-attributed deletion frequency ([3]; 100 nM) was 0.802 ± 0.018, the MMEJ-attributed deletion frequency ([3]; 200 nM) was 0.877 ± 0.13 and the MMEJ-attributed deletion frequency ([3]; 500 nM) was 0.912 ± 0.042. For the same compound, the HDR ([4]; 20 nM) was 1.001 ± 0.0057, the HDR ([4]; 50 nM) was 0.932 ± 0.021 and the HDR ([4]; 100 nM) was 0.943 ± 0.051. It also gave an HDR ([4]; 200 nM) of 0.937 ± 0.044 and an HDR ([4]; 500 nM) of 0.917 ± 0.011.

For `Nc1ncnc2c1ncn2C1CC(O)C(CO)O1` (stereo not given) [2'-Deoxyadenosine monohydrate] (in DMSO), the cell survival ([1]; 20 nM) was 0.996, the cell survival ([1]; 50 nM) was 1.12 and the cell survival ([1]; 100 nM) was 1. For the same compound, the cell survival ([1]; 200 nM) was 1.1, the cell survival ([1]; 500 nM) was 1.12 and the NHEJ-attributed indel frequency ([2]; 20 nM) was 1.01 ± 0.013. The NHEJ-attributed indel frequency ([2]; 50 nM) was 1.02 ± 0.015, the NHEJ-attributed indel frequency ([2]; 100 nM) was 1 ± 0.029 and the NHEJ-attributed indel frequency ([2]; 200 nM) was 1.006 ± 0.008. It also gave an NHEJ-attributed indel frequency ([2]; 500 nM) of 1.01 ± 0.027, an MMEJ-attributed deletion frequency ([3]; 20 nM) of 0.957 ± 0.043 and an MMEJ-attributed deletion frequency ([3]; 50 nM) of 0.99 ± 0.071. It also gave an MMEJ-attributed deletion frequency ([3]; 100 nM) of 0.999 ± 0.11, an MMEJ-attributed deletion frequency ([3]; 200 nM) of 1.02 ± 0.036 and an MMEJ-attributed deletion frequency ([3]; 500 nM) of 1.02 ± 0.2. The HDR ([4]; 20 nM) was 1.03 ± 0.021, the HDR ([4]; 50 nM) was 1.02 ± 0.02 and the HDR ([4]; 100 nM) was 1.03 ± 0.11. For the same compound, the HDR ([4]; 200 nM) was 1.01 ± 0.05 and the HDR ([4]; 500 nM) was 0.958 ± 0.062.
